Experimental data taken from patent US9193719B2, “1,2,4-triazol-5-ones and analogs exhibiting anti-cancer and anti-proliferative activities” (Deciphera Pharmaceuticals, LLC, priority 2013, dated 2015).

Columns and labels:
[1] = target: T1, unphosphorylated c-FMS kinase (uFMS, Seq. ID no. 1) (Homo sapiens, UniProt P07333); experiment: uFMS kinase enzymatic assay (pyruvate kinase/lactate dehydrogenase coupled); assay type: biochemical; conditions: ATP 500 μM, rate 3 to 4 h
T1 construct: purchased Millipore
T1 sequence (P07333 538-972): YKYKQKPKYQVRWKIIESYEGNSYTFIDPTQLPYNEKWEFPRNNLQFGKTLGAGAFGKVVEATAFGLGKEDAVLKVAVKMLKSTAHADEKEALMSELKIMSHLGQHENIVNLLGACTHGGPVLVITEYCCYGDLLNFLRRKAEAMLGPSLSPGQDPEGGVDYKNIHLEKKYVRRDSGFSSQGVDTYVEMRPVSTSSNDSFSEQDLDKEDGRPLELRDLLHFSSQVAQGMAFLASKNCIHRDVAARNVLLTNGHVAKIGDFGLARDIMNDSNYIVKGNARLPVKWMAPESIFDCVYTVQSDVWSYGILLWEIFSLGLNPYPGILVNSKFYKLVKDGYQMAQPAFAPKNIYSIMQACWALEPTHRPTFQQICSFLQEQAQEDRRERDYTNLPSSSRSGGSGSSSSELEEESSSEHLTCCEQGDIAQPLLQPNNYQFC
Description: uFMS Kinase (Seq. ID No. 1) Assay
Activity of unphosphorylated c-FMS kinase (uFMS, Seq. ID no. 1) was determined by following the production of ADP from the FMS kinase reaction with ATP and poly E4Y as substrates through coupling with the pyruvate kinase/lactate dehydrogenase system (e.g., Schindler et al. Science (2000) 289: 1938-1942). In this assay, the oxidation of NADH (thus the decrease at A340 nm) was continuously monitored spectrophometrically. The reaction mixture (100 μL) contained FMS (purchased from Millipore) (10 nM), polyE4Y (1 mg/mL), MgCl2 (10 mM), pyruvate kinase (4 units), lactate dehydrogenase (0.7 units), phosphoenol pyruvate (1 mM), NADH (0.28 mM) and ATP (500 μM) in 90 mM Tris buffer containing 0.2% octyl-glucoside and 1% DMSO, pH 7.5. The inhibition reaction was started by mixing serial diluted test compound with the above reaction mixture. The absorption at 340 nm was monitored continuously for 4 hours at 30° C. on Synergy 2 plate reader. The reaction rate was calculated using the 3 to 4 h time frame. Percent inhibition was obtained by comparison of reaction rate with that of a control (i.e. in the absence of test compound). IC50 values were calculated from a series of percent inhibition values determined at a range of inhibitor concentrations using software routines as implemented in the GraphPad Prism software package.

M-NFS-60 cells = experiment: M-NFS-60 cell proliferation assay (resazurin); assay type: cell-based; conditions: 67 h incubation
Description: M-NFS-60 cells (catalog #CRL-1838) were obtained from the American Type Culture Collection (ATCC, Manassas, Va.). Briefly, cells were grown in suspension in RPMI 1640 medium supplemented with 10% characterized fetal bovine serum (Invitrogen, Carlsbad, Calif.), 0.05 mM 2-mercaptoethanol, and 20 ng/mL mouse recombinant macrophage colony stimulating factor (M-CSF) at 37° C., 5% CO2, and 95% humidity. Cells were allowed to expand until reaching saturation at which point they were subcultured or harvested for assay use.
M-NFS-60 Cell Proliferation Assay
A serial dilution of test compound was dispensed into a 384-well black clear bottom plate (Corning, Corning, N.Y.). Two thousand five hundred cells were added per well in 50 μL complete growth medium. Plates were incubated for 67 h at 37° C., 5% CO2, and 95% humidity. At the end of the incubation period 10 μL of a 440 μM solution of resazurin (Sigma, St. Louis, Mo.) in PBS was added to each well and incubated for an additional 5 h at 37° C., 5% CO2, and 95% humidity. Plates were read on a Synergy2 reader (Biotek, Winooski, Vt.) using an excitation of 540 nm and an emission of 600 nm. IC50 values were calculated from a series of percent inhibition values determined at a range of inhibitor concentrations using software routines as implemented in the GraphPad Prism software package.

[2] = target: T2, unphosphorylated PDGFRβ kinase (uPDGFRβ, Seq. ID No. 3) (Homo sapiens, UniProt P09619); experiment: uPDGFRβ kinase enzymatic assay (pyruvate kinase/lactate dehydrogenase coupled); assay type: biochemical; conditions: ATP 500 μM, rate 1.5 to 2.5 h
T2 construct: purchased DeCode
Description: Unphosphorylated PDGFRβ (uPDGFRβ) Kinase (Seq. ID No. 3) Assay
Activity of unphosphorylated PDGFRβ kinase (uPDGFRβ, Seq. ID No. 3) was determined by following the production of ADP from the kinase reaction with ATP and poly E4Y as substrates through coupling with the pyruvate kinase/lactate dehydrogenase system (e.g., Schindler et al. Science (2000) 289: 1938-1942). In this assay, the oxidation of NADH (thus the decrease at A340 nm) was continuously monitored spectrophometrically. The reaction mixture (100 μL) contained PDGFRβ (DeCode, 15.7 nM), polyE4Y (2.5 mg/mL), MgCl2 (10 mM), pyruvate kinase (4 units), lactate dehydrogenase (0.7 units), phosphoenol pyruvate (1 mM) and NADH (0.28 mM) and ATP (500 μM) in a 90 mM Tris buffer containing 0.2% octyl-glucoside and 1% DMSO, at pH 7.5. The inhibition reaction was started by mixing serial diluted test compound with the above reaction mixture. The absorption at 340 nm was monitored continuously for 4 h at 30° C. on a Polarstar Optima or Synergy 2 plate reader. The reaction rate was calculated using the 1.5 to 2.5 h time frame. Percent inhibition was obtained by comparison of reaction rate with that of a control (i.e. with no test compound). IC50 values were calculated from a series of percent inhibition values determined at a range of inhibitor concentrations using software routines as implemented in the GraphPad Prism software package.

osteoclast precursors = experiment: Osteoclast tartrate-resistant acid phosphatase assay; assay type: cell-based; conditions: RANKL and M-CSF, 7-14 days, tartrate-resistant acid phosphatase activity
Description: Osteoclast Tartrate-Resistant Acid Phosphatase Assay
A serial dilution of test compound was dispensed into a 384-well black clear bottom plate (Nalge Nunc International, Rochester, N.Y.). Compound was diluted by the addition of DMEM media supplemented with 10% characterized fetal bovine serum (Invitrogen, Carlsbad, Calif.). Diluted compound was transferred to a 384-well black clear bottom plate. Two-thousand five hundred osteoclast precursors (Lonza, Walkersville, Md.) were added per well in growth media containing Receptor Activator of Nuclear Factor Kappa-beta ligand (RANKL) and M-CSF (R&D Systems, Minneapolis, Minn.). Plates were incubated for 7-14 days at 37 degrees Celsius, 5% CO2, and 95% humidity to allow differentiation of osteoclast precursors. At the end of the incubation period, 10 μL of supernatant from each well was transferred to a clear 384-well plate. Tartrate-resistant acid phosphatase activity in the supernatant samples was determined using an acid phosphatase assay kit (Sigma, St. Louis, Mo.). Absorbance was measured at 550 nm using a plate reader. Data was analyzed using Prism software (Graphpad, San Diego, Calif.) to calculate IC50 values.

[3] = target: T3, unphosphorylated c-KIT kinase (uKIT, Seq. ID no. 2) (Homo sapiens, UniProt P10721); experiment: uKit kinase enzymatic assay (pyruvate kinase/lactate dehydrogenase coupled); assay type: biochemical; conditions: ATP 2000 μM, rate 3 to 4 h
T3 construct: uKit with N-terminal GST fusion used for screening
Description: uKit Kinase (Seq. ID No. 2) Assay
Activity of unphosphorylated c-KIT kinase (uKIT, Seq. ID no. 2) was determined by following the production of ADP from the KIT kinase reaction with ATP and poly E4Y as substrates through coupling with the pyruvate kinase/lactate dehydrogenase system (e.g., Schindler et al. Science (2000) 289: 1938-1942). In this assay, the oxidation of NADH (thus the decrease at A340 nm) was continuously monitored spectrophometrically. The reaction mixture (100 μl) contained unphosphorylated KIT (12 nM), polyE4Y (1 mg/mL), MgCl2 (10 mM), pyruvate kinase (4 units), lactate dehydrogenase (0.7 units), phosphoenol pyruvate (1 mM), and NADH (0.28 mM) and ATP (2000 μM) in 90 mM Tris buffer containing 0.2% octyl-glucoside and 1% DMSO, pH 7.5. The inhibition reaction was started by mixing serial diluted test compound with the above reaction mixture. The absorption at 340 nm was monitored continuously for 4 hours at 30° C. on Synergy 2 plate reader (BioTech). Reaction rates around 3 to 4 h time frame were used to calculate % inhibitions, from which IC50 values were generated.

T3 sequence (P10721 with tags, fused parts or gaps): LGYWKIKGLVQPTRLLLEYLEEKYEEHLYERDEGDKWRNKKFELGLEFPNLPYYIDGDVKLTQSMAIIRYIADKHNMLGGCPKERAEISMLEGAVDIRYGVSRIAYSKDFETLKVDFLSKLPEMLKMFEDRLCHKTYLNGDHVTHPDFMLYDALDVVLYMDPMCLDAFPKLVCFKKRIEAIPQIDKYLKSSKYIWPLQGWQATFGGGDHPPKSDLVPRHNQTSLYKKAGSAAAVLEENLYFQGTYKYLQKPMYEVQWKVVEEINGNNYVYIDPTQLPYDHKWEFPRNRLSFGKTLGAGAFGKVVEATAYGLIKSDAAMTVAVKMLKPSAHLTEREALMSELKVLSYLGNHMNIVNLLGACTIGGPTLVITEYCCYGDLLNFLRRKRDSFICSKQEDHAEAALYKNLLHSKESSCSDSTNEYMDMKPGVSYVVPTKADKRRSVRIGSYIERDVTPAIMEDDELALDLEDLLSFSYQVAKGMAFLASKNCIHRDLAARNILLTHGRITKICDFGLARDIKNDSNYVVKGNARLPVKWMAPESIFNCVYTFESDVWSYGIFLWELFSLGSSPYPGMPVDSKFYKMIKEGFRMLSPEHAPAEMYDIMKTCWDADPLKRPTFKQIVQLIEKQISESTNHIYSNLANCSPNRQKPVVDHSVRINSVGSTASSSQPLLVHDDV
T2 sequence (P09619 557-1106): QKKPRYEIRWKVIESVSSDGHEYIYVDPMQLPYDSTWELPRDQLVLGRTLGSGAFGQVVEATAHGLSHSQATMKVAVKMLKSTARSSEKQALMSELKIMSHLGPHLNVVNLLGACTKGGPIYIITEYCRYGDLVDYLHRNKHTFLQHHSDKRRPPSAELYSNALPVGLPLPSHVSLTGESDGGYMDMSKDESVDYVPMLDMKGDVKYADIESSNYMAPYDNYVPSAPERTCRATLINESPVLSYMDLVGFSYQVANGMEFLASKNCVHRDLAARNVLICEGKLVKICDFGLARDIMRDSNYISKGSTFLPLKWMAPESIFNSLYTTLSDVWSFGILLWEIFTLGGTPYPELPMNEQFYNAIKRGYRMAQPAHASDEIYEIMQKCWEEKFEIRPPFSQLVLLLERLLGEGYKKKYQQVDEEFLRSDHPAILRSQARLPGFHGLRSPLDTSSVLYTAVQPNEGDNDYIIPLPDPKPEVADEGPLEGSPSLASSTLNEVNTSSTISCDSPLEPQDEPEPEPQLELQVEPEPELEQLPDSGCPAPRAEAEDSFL

IC50 [1] [µM]	IC50 [2] [µM]	IC50 (osteoclast precursors) [µM]	IC50 [3] [µM]	Structure (SMILES)	IC50 (M-NFS-60 cells) [µM]
0.01 to 0.1	> 1	0.01 to 0.1	0.1 to 1	Cc1nc(-n2nc(C(C)(C)C)[nH]c2=O)ccc1Oc1ccnc(-c2ccc(N3CCN(C)CC3)nc2)c1 [Example 40, 3-(tert-butyl)-1-(6-methyl-5-((6′-(4-methylpiperazin-1-yl)-[2,3′-bipyridin]-4-yl)oxy)pyridin-2-yl)-1H-1,2,4-triazol-5(4H)-one]	0.01 to 0.1
0.1 to 1	–	> 1	> 1	COCc1nn(-c2ccc(Oc3ccnc(-c4cnn(C)c4)c3)c(C)n2)c(=O)[nH]1 [Example 17, 3-(methoxymethyl)-1-(6-methyl-5-((2-(1-methyl-1H-pyrazol-4-yl)pyridin-4-yl)oxy)pyridin-2-yl)-1H-1,2,4-triazol-5(4H)-one]	> 1
0.01 to 0.1	> 1	0.1 to 1	> 1	Cc1cn(-c2cc(Oc3ccc(-n4nc(C(C)(C)C)[nH]c4=O)nc3C)ccn2)cn1 [Example 19, 3-(tert-butyl)-1-(6-methyl-5-((2-(4-methyl-1H-imidazol-1-yl)pyridin-4-yl)oxy)pyridin-2-yl)-1H-1,2,4-triazol-5(4H)-one]	0.1 to 1
0.1 to 1	> 1	0.1 to 1	> 1	CCc1nc(-n2nc(C(C)(C)C)[nH]c2=O)ccc1Oc1ccnc(-c2cnn(C)c2)c1 [Example 8, 3-(tert-butyl)-1-(6-ethyl-5-((2-(1-methyl-1H-pyrazol-4-yl)pyridin-4-yl)oxy)pyridin-2-yl)-1H-1,2,4-triazol-5(4H)-one]	0.1 to 1
0.1 to 1	> 1	0.1 to 1	0.1 to 1	Cc1nc(-n2nc(C3CC3)[nH]c2=O)ccc1Oc1ccnc(-c2cnn(C)c2)c1 [Example 35, 3-cyclopropyl-1-(6-methyl-5-((2-(1-methyl-1H-pyrazol-4-yl)pyridin-4-yl)oxy)pyridin-2-yl)-1H-1,2,4-triazol-5(4H)-one]	> 1
0.01 to 0.1	> 1	0.1 to 1	0.1 to 1	Cc1nc(-n2nc(C(C)(C)C)[nH]c2=O)ccc1Oc1ccnc(-c2cnn(CCO)c2)c1 [Example 18, 3-(tert-butyl)-1-(5-((2-(1-(2-hydroxyethyl)-1H-pyrazol-4-yl)pyridin-4-yl)oxy)-6-methylpyridin-2-yl)-1H-1,2,4-triazol-5(4H)-one]	0.1 to 1
0.1 to 1	> 1	0.1 to 1	> 1	Cc1nc(-n2nc(C(C)(C)C)[nH]c2=O)ccc1Oc1ccnc(-c2ccnc(N3CCN(C)CC3)c2)c1 [Example 41, 3-(tert-butyl)-1-(6-methyl-5-((2′-(4-methylpiperazin-1-yl)-[2,4′-bipyridin]-4-yl)oxy)pyridin-2-yl)-1H-1,2,4-triazol-5(4H)-one]	> 1
0.01 to 0.1	> 1	0.1 to 1	> 1	CNC(=O)c1cc(Oc2ccc(-n3nc(C(C)(C)C)[nH]c3=O)nc2)ccn1 [Example 26, 4-((6-(3-(tert-butyl)-5-oxo-4,5-dihydro-1H-1,2,4-triazol-1-yl)pyridin-3-yl)oxy)-N-methylpicolinamide]	> 1
0.01 to 0.1	> 1	0.01 to 0.1	0.1 to 1	Cc1ncc(-c2cc(Oc3ccc(-n4nc(C(C)(C)C)[nH]c4=O)nc3C)ccn2)s1 [Example 12, 3-(tert-butyl)-1-(6-methyl-5-((2-(2-methylthiazol-5-yl)pyridin-4-yl)oxy)pyridin-2-yl)-1H-1,2,4-triazol-5(4H)-one]	0.01 to 0.1
0.1 to 1	0.1 to 1	0.1 to 1	0.1 to 1	COC(C)(C)c1nn(-c2cc(C)c(Oc3ccnc(NC(C)=O)c3)cn2)c(=O)[nH]1 [Example 44, N-(4((6-(3-(2-methoxypropan-2-yl)-5-oxo-4,5-dihydro-1H-1,2,4-triazol-1-yl)-4-methylpyridin-3-yl)oxy)pyridin-2-yl)acetamide]	0.1 to 1
0.01 to 0.1	> 1	0.1 to 1	> 1	CC(=O)Nc1cc(Oc2ccc(-n3nc(C(C)(C)C)[nH]c3=O)nc2C)ccn1 [Example 11, N-(4-((6-(3-(tert-butyl)-5-oxo-4,5-dihydro-1H-1,2,4-triazol-1-yl)-2-methylpyridin-3-yl)oxy)pyridin-2-yl)acetamide]	0.1 to 1
